Literature values in US20220016054A1, “EPINEPHRINE PARENTERAL FORMULATIONS” (Somerset Therapeutics LLC, priority 2020, published 2022).

Legend:
[1] = test system: beta-adrenergic receptors
[2] = fraction of that of l-epinephrine

Row | Compound | beta-adrenergic activity [1] | pressor effect relative to l-epinephrine [2]
1 | CNCC(=O)c1ccc(O)c(O)c1 [adrenalone] | little if any beta-adrenergic activity | –
2 | CNC[C@H](O)c1ccc(O)c(O)c1 [d-epinephrine] | – | about one-fifteenth
